# From USRE48461E1, “Modulation of androgen receptor expression” (Ionis Pharmaceuticals, Inc., priority 2012, dated 2021)
# Tests used:
# Type in all cases: cell-based, human
# full-length AR = assay: Western blot of full-length AR in MDV3100-resistant C4-2B cells; conditions: C4-2B MR cells (Example 16)
# Experimental: (§1) ISIS 549372, ISIS 549434, and ISIS 554221 at 1 μM concentration of antisense oligonucleotide were each added to the culture media at 1 μM concentration for free uptake by the cells. After a treatment period of 2 days, cells were harvested in RIPA buffer containing protease inhibitors. The presence of bands for full-length AR, as well as the variant form, AR-V7, was detected by western blot using AR antibody (N-20, Santa Cruz).
# (§2) Western analysis of full-length AR, as well as the AR-V7 variant, was also conducted in a manner similar to the assay described above.
# AR-V7 = assay: Western blot of AR-V7 in MDV3100-resistant C4-2B cells; conditions: C4-2B MR cells (Example 16)
# Experimental: as §1, §2
# LMR20 cells = assay: Proliferation of MDV3100-resistant LMR20 cells (MTT; with R1881 or DHT); conditions: 5 days
# Experimental: LMR20 cells were plated at 1,500 cells per well in phenol red-free medium with charcoal-stripped fetal bovine serum (CSS), to remove any androgens from the medium (Life Technologies). […] The synthetic androgen agonist, R1881, (Takeda, A. N. et al., Mol. Pharmacol. 2007. 71: 473-82) was added on day 1 at 1 nM dose to a set of cells also treated with each of the antisense oligonucleotides. DHT was added on day 1 at a dose of 10 nM to another set of cells also treated with each of the antisense oligonucleotides. […] After a treatment period of 5 days, the proliferative ability of the cancer cells was measured by the standard MTT assay. Results are presented in Table 42 as percent inhibition of proliferation, relative to non-treated cells.
# AR mRNA [1] = assay: AR mRNA levels in LMR20 cells (with/without DHT or R1881); conditions: with or without DHT/R1881
# Experimental: LMR20 cells were plated at 1,500 cells per well in phenol red-free medium with CSS.
# C4-2B cells [2] = assay: C4-2B cell proliferation, ASO in combination with MDV3100 (Example 19); conditions: 6 days
# Experimental: C4-2B cells were plated at 1,500 cells per well. […] ISIS 347526 was included as a negative control. […] After a treatment period of 6 days, the proliferative capacity of the cancer cells was measured with CellTiter 96® AQueous One Solution Cell Proliferation kit (Promega), following the manufacturer's instructions. Results are presented in Table 46 as percent inhibition of proliferation, relative to non-treated cells. Treatment of the cells with ISIS 549372 or ISIS 549458 reduced proliferation of the cells more extensively than treatment with ISIS 554221.
# AR full-length mRNA = AR full-length mRNA in CWR22-RV1 cells (RNAiMax, RTS3559); conditions: 6 days
# Experimental: (§3) CWR22-RV1 cells were plated and transfected using RNAiMax reagent (Life Technologies) with ISIS oligonucleotides at 1.7 nM, 5.0 nM, 16.7 nM, or 50 nM concentrations. ISIS 347526 was included as a negative control. After a treatment period of 6 days, the target reduction and proliferative capacity of the cancer cells was measured.
# (§4) Antisense inhibition of AR full-length mRNA was measured with the RTS3559 primer probe set. The results are presented in Table 63 as percent inhibition relative to non-treated cells. The reduction in V7 splice variant of the AR mRNA was also measured by RT-PCR using SYBR Green staining (Hu, R. et al., Cancer Res. 2009. 69: 16-22). The results are presented in Table 64, as percent reduction, relative to non-treated cells. Cell proliferation was measured with CellTiter 96® AQueous One Solution Cell Proliferation kit (Promega), following the manufacturer's instructions. Results are presented in Table 65 as percent inhibition of proliferation, relative to non-treated cells.
# [3] = tested on: V7 splice variant of the AR mRNA; assay: AR V7 splice variant mRNA in CWR22-RV1 cells (RT-PCR SYBR Green); conditions: RNAiMax, 6 days
# Experimental: as §3, §4
# CWR22-RV1 cells = assay: CWR22-RV1 cell proliferation (CellTiter 96); conditions: RNAiMax, 6 days
# Experimental: as §3, §4
# AR mRNA [4] = assay: AR mRNA in C4-2B cells by free uptake (hAR_LTS00943); conditions: free uptake, 24 hrs
# Experimental: (§5) Cells were plated at a concentration of 1,000 cells/well in 96-well plates to measure cell proliferation, and at 4,000 cells/well to measure target reduction. ISIS 549458, ISIS 549372, ISIS 549434, and ISIS 554221 were added individually at 0.04 μM, 0.20 μM, 1.00 μM, or 5.00 μM. After an incubation period of 24 hrs, mRNA levels were measured using hAR_LTS00943.
# C4-2B cells [5] = assay: C4-2B cell proliferation by free uptake (MTT); conditions: day 6
# Experimental: as §5
# On day 6, cells plated for measuring proliferation were incubated with MTT reagent until the development of color. Color intensity was measured using a spectrophotometer at 490 nm.
sequence,measurement,setting,value
"ACCAAGTTTCTTCAGC (LNA gapmer, phosphorothioate backbone, further chemistry not given here) [ISIS 554221, 3-10-3 LNA gapmer, phosphorothioate backbone, targeted to exon 4 of AR; benchmark, reference compound]",levels of full-length AR (Western analysis),full-length AR,reduced levels of full-length AR less extensively compared to ISIS 549372
same,levels of AR-V7 (Western analysis),AR-V7,did not reduce levels of AR-V7
same,Percent inhibition of LMR20 cell proliferation,"LMR20 cells; CSS + DHT, ASO 0.04 μM",0%
same,Percent inhibition of LMR20 cell proliferation,"LMR20 cells; CSS + DHT, ASO 0.20 μM",0%
same,Percent inhibition of LMR20 cell proliferation,"LMR20 cells; CSS + DHT, ASO 1.0 μM",10%
same,Percent inhibition of LMR20 cell proliferation,"LMR20 cells; CSS + DHT, ASO 5.0 μM",36%
same,Percent inhibition of LMR20 cell proliferation,"LMR20 cells; CSS + R1881, ASO 0.04 μM",1%
same,Percent inhibition of LMR20 cell proliferation,"LMR20 cells; CSS + R1881, ASO 0.20 μM",10%
same,Percent inhibition of LMR20 cell proliferation,"LMR20 cells; CSS + R1881, ASO 1.0 μM",19%
same,Percent inhibition of LMR20 cell proliferation,"LMR20 cells; CSS + R1881, ASO 5.0 μM",54%
same,Percent inhibition of LMR20 cell proliferation,"LMR20 cells; CSS, ASO 0.04 μM",0%
same,Percent inhibition of LMR20 cell proliferation,"LMR20 cells; CSS, ASO 0.20 μM",1%
same,Percent inhibition of LMR20 cell proliferation,"LMR20 cells; CSS, ASO 1.0 μM",2%
same,Percent inhibition of LMR20 cell proliferation,"LMR20 cells; CSS, ASO 5.0 μM",16%
same,AR mRNA levels in LMR20 cells,AR mRNA [1],did not alter AR mRNA levels
same,Percent inhibition of C4-2B cell proliferation with 0.1 μM ASO,C4-2B cells [2]; 0.1 μM ASO + MDV3100 1 μM,59%
same,Percent inhibition of C4-2B cell proliferation with 0.1 μM ASO,C4-2B cells [2]; 0.1 μM ASO + MDV3100 […],29%
same,Percent inhibition of C4-2B cell proliferation with 0.1 μM ASO,"C4-2B cells [2]; 0.1 μM ASO, MDV3100 0 μM",9%
same,Percent inhibition of C4-2B cell proliferation with 0.2 μM ASO,C4-2B cells [2]; 0.2 μM ASO + MDV3100 1 μM,67%
same,Percent inhibition of C4-2B cell proliferation with 0.2 μM ASO,C4-2B cells [2]; 0.2 μM ASO + MDV3100 […],45%
same,Percent inhibition of C4-2B cell proliferation with 0.2 μM ASO,"C4-2B cells [2]; 0.2 μM ASO, MDV3100 0 μM",23%
same,"reduced cell proliferation, ASO alone","C4-2B cells [2]; C4-2B cells, ASO alone, Table 46 (0.1 μM ASO)",23%
same,Percent inhibition of AR full-length mRNA,AR full-length mRNA; dose 5.0 nM,41%
same,Percent inhibition of AR full-length mRNA,AR full-length mRNA; dose 16.7 nM,67%
same,Percent inhibition of AR full-length mRNA,AR full-length mRNA; dose 50.0 nM,72%
same,"Percent inhibition of AR splice variant, V7",[3]; dose 5.0 nM,1%
same,"Percent inhibition of AR splice variant, V7",[3]; dose 16.7 nM,7%
same,"Percent inhibition of AR splice variant, V7",[3]; dose 50.0 nM,35%
same,Percent inhibition of cell proliferation,CWR22-RV1 cells; dose 5.0 nM,11%
same,Percent inhibition of cell proliferation,CWR22-RV1 cells; dose 16.7 nM,27%
same,Percent inhibition of cell proliferation,CWR22-RV1 cells; dose 50.0 nM,47%
same,Percent inhibition of AR full-length mRNA,AR mRNA [4]; dose 0.04 μM,0%
same,Percent inhibition of AR full-length mRNA,AR mRNA [4]; dose 0.20 μM,0%
same,Percent inhibition of AR full-length mRNA,AR mRNA [4]; dose 1.00 μM,0%
same,Percent inhibition of AR full-length mRNA,AR mRNA [4]; dose 5.00 μM,0%
same,Percent inhibition of cell proliferation,C4-2B cells [5]; dose 0.04 μM,0%
same,Percent inhibition of cell proliferation,C4-2B cells [5]; dose 0.20 μM,10%
same,Percent inhibition of cell proliferation,C4-2B cells [5]; dose 1.00 μM,21%
same,Percent inhibition of cell proliferation,C4-2B cells [5]; dose 5.00 μM,30%
